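Compound exposure: 48 hours, 5 concentrations, 96-well plates. At the GI50, growth is halved.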 The source made the active and inactive calls. No stated cut-off is given here; in the data, active = GI50 up to about 1.1 µM and inactive = higher.
Legend:
Experiment in all cases: DTP human tumour cell line panel, 48 h
[1] = system: 786-0
[2] = system: A498
[3] = system: A549
[4] = system: ACHN
[5] = system: BT-549
[6] = system: CAKI-1
[7] = system: CCRF-CEM
[8] = system: COLO 205
[9] = system: DU-145
[10] = system: HCC 2998
[11] = system: HCT-116
[12] = system: HCT-15
[13] = system: HL-60
[14] = system: HOP-62
[15] = system: HOP-92
[16] = system: HT-29
[17] = system: Hs-578T
[18] = system: K562
[19] = system: KM12
[20] = system: LOX IMVI
[21] = system: M14
[22] = system: MDA-MB-231
[23] = system: MDA-MB-435
[24] = system: MDA-N
[25] = system: MOLT-4
[26] = system: NCI-H226
[27] = system: NCI-H23
[28] = system: NCI-H460
[29] = system: NCI/ADR-RES
[30] = system: OVCAR-3
[31] = system: OVCAR-4
[32] = system: OVCAR-5
[33] = system: OVCAR-8
[34] = system: PC-3
[35] = system: RPMI-8226
[36] = system: RXF 393
[37] = system: SF-268
[38] = system: SK-MEL-28
[39] = system: SK-MEL-2
[40] = system: SK-MEL-5
[41] = system: SK-OV-3
[42] = system: SN12C
[43] = system: SNB-19
[44] = system: SNB-75
[45] = system: SR
[46] = system: SW-620
[47] = system: T47D
[48] = system: U-251
[49] = system: UACC-257
[50] = system: UACC-62
[51] = system: EKVX
[52] = system: IGROV-1
[53] = system: MCF7
[54] = system: NCI-H522
[55] = system: SF-295
[56] = system: SF-539
[57] = system: TK-10
[58] = system: UO-31
[59] = system: Malme-3M

SMILES: CC(C)(C)OC(=O)N[C@@H](Cc1ccccc1)C(=O)N1CC[C@@H](C(=O)N2[C@H]3CC4CC[C@@]3(CS2(=O)=O)C4(C)C)N1
- GI50 [1]: > 100 µM (inactive)
- GI50 [2]: > 100 µM (inactive)
- GI50 [3]: 43.8 µM (inactive)
- GI50 [4]: 64.9 µM (inactive)
- GI50 [5]: 63.5 µM (inactive)
- GI50 [6]: > 100 µM (inactive)
- GI50 [7]: 51.3 µM (inactive)
- GI50 [8]: 46.9 µM (inactive)
- GI50 [9]: 79.6 µM (inactive)
- GI50 [10]: 79.3 µM (inactive)
- GI50 [11]: 47.3 µM (inactive)
- GI50 [12]: 56.9 µM
- GI50 [13]: 75.5 µM (inactive)
- GI50 [14]: 78.3 µM (inactive)
- GI50 [15]: > 100 µM (inactive)
- GI50 [16]: 97.3 µM (inactive)
- GI50 [17]: 46.8 µM (inactive)
- GI50 [18]: > 100 µM (inactive)
- GI50 [19]: 79.1 µM (inactive)
- GI50 [20]: 75.9 µM (inactive)
- GI50 [21]: 74 µM (inactive)
- GI50 [22]: 48 µM (inactive)
- GI50 [23]: 51.9 µM (inactive)
- GI50 [24]: 39.3 µM (inactive)
- GI50 [25]: > 100 µM (inactive)
- GI50 [26]: > 100 µM (inactive)
- GI50 [27]: 50.6 µM (inactive)
- GI50 [28]: 39.4 µM (inactive)
- GI50 [29]: 62.5 µM (inactive)
- GI50 [30]: 51.6 µM (inactive)
- GI50 [31]: 68.1 µM (inactive)
- GI50 [32]: > 100 µM (inactive)
- GI50 [33]: 59.3 µM (inactive)
- GI50 [34]: 45.7 µM (inactive)
- GI50 [35]: 82.6 µM (inactive)
- GI50 [36]: > 100 µM (inactive)
- GI50 [37]: > 100 µM (inactive)
- GI50 [38]: > 100 µM (inactive)
- GI50 [39]: 61.7 µM (inactive)
- GI50 [40]: 24.6 µM (inactive)
- GI50 [41]: > 100 µM (inactive)
- GI50 [42]: 59 µM (inactive)
- GI50 [43]: 93.8 µM (inactive)
- GI50 [44]: 39.9 µM (inactive)
- GI50 [45]: > 100 µM (inactive)
- GI50 [46]: 62.8 µM (inactive)
- GI50 [47]: 0.752 µM (active)
- GI50 [48]: > 100 µM (inactive)
- GI50 [49]: > 100 µM (inactive)
- GI50 [50]: 52.4 µM (inactive)

SMILES: CCNc1cc2oc(=O)cc(C(F)(F)F)c2cc1C
- GI50 [1]: > 100 µM (inactive)
- GI50 [2]: > 100 µM (inactive)
- GI50 [3]: > 100 µM (inactive)
- GI50 [4]: > 100 µM (inactive)
- GI50 [5]: > 100 µM (inactive)
- GI50 [6]: > 100 µM (inactive)
- GI50 [8]: > 100 µM (inactive)
- GI50 [9]: > 100 µM (inactive)
- GI50 [51]: 31.3 µM (inactive)
- GI50 [10]: > 100 µM (inactive)
- GI50 [11]: > 100 µM (inactive)
- GI50 [12]: > 100 µM
- GI50 [14]: > 100 µM (inactive)
- GI50 [15]: 64.4 µM (inactive)
- GI50 [16]: > 100 µM (inactive)
- GI50 [17]: > 100 µM (inactive)
- GI50 [52]: > 100 µM (inactive)
- GI50 [18]: > 100 µM (inactive)
- GI50 [19]: > 100 µM (inactive)
- GI50 [20]: > 100 µM (inactive)
- GI50 [21]: > 100 µM (inactive)
- GI50 [53]: > 100 µM (inactive)
- GI50 [22]: > 100 µM (inactive)
- GI50 [23]: > 100 µM (inactive)
- GI50 [24]: > 100 µM (inactive)
- GI50 [25]: > 100 µM (inactive)
- GI50 [26]: > 100 µM (inactive)
- GI50 [27]: > 100 µM (inactive)
- GI50 [28]: > 100 µM (inactive)
- GI50 [54]: > 100 µM (inactive)
- GI50 [29]: > 100 µM (inactive)
- GI50 [30]: > 100 µM (inactive)
- GI50 [31]: > 100 µM (inactive)
- GI50 [32]: > 100 µM (inactive)
- GI50 [33]: > 100 µM (inactive)
- GI50 [34]: > 100 µM (inactive)
- GI50 [35]: > 100 µM (inactive)
- GI50 [36]: > 100 µM (inactive)
- GI50 [37]: > 100 µM (inactive)
- GI50 [55]: > 100 µM (inactive)
- GI50 [56]: > 100 µM (inactive)
- GI50 [38]: > 100 µM (inactive)
- GI50 [39]: > 100 µM (inactive)
- GI50 [40]: > 100 µM (inactive)
- GI50 [41]: > 100 µM (inactive)
- GI50 [42]: > 100 µM (inactive)
- GI50 [43]: > 100 µM (inactive)
- GI50 [44]: 27 µM (inactive)
- GI50 [46]: > 100 µM (inactive)
- GI50 [47]: > 100 µM (inactive)
- GI50 [57]: > 100 µM (inactive)
- GI50 [48]: > 100 µM (inactive)
- GI50 [49]: > 100 µM (inactive)
- GI50 [50]: > 100 µM (inactive)
- GI50 [58]: > 100 µM (inactive)

SMILES: Cn1/c(=N\S(=O)(=O)c2ccccc2)n(S(=O)(=O)c2ccccc2)c2ccccc21
- GI50 [1]: 88.5 µM (inactive)
- GI50 [2]: 78.7 µM (inactive)
- GI50 [3]: 47.5 µM (inactive)
- GI50 [4]: 34.5 µM (inactive)
- GI50 [5]: > 100 µM (inactive)
- GI50 [6]: > 100 µM (inactive)
- GI50 [7]: 24.7 µM (inactive)
- GI50 [8]: 32.9 µM (inactive)
- GI50 [9]: 72.8 µM (inactive)
- GI50 [51]: 63.5 µM (inactive)
- GI50 [11]: 48.9 µM (inactive)
- GI50 [12]: > 100 µM
- GI50 [13]: 0.598 µM (active)
- GI50 [14]: 38.8 µM (inactive)
- GI50 [15]: > 10 µM (inactive)
- GI50 [16]: 35.6 µM (inactive)
- GI50 [17]: 41.8 µM (inactive)
- GI50 [52]: > 100 µM (inactive)
- GI50 [18]: 39.9 µM (inactive)
- GI50 [19]: 26.2 µM (inactive)
- GI50 [20]: > 100 µM (inactive)
- GI50 [21]: 53.7 µM (inactive)
- GI50 [22]: > 100 µM (inactive)
- GI50 [23]: 58.9 µM (inactive)
- GI50 [24]: 61.5 µM (inactive)
- GI50 [25]: 42.9 µM (inactive)
- GI50 [59]: 47.6 µM (inactive)
- GI50 [26]: 50.2 µM (inactive)
- GI50 [27]: 61 µM (inactive)
- GI50 [54]: 50.4 µM (inactive)
- GI50 [29]: 38.6 µM (inactive)
- GI50 [30]: 36.2 µM (inactive)
- GI50 [31]: > 100 µM (inactive)
- GI50 [32]: > 100 µM (inactive)
- GI50 [33]: 56.1 µM (inactive)
- GI50 [34]: 29.5 µM (inactive)
- GI50 [35]: 48.1 µM (inactive)
- GI50 [36]: 95.5 µM (inactive)
- GI50 [37]: 54.1 µM (inactive)
- GI50 [55]: 62.1 µM (inactive)
- GI50 [38]: > 100 µM (inactive)
- GI50 [39]: 34.4 µM (inactive)
- GI50 [40]: 35.7 µM (inactive)
- GI50 [41]: > 100 µM (inactive)
- GI50 [42]: 87.3 µM (inactive)
- GI50 [43]: 89.3 µM (inactive)
- GI50 [44]: 54.7 µM (inactive)
- GI50 [46]: 93.1 µM (inactive)
- GI50 [47]: 40.6 µM (inactive)
- GI50 [57]: > 100 µM (inactive)
- GI50 [48]: 34.7 µM (inactive)
- GI50 [49]: > 100 µM (inactive)
- GI50 [50]: > 100 µM (inactive)
- GI50 [58]: 34.7 µM (inactive)

From ChEMBL document CHEMBL1201862, “PubChem BioAssay data set” (2004)
